ChEMBL document CHEMBL5357082, “Identification and Optimization of Small Molecule Pyrazolopyrimidine TLR7 Agonists for Applications in Immuno-oncology” (ACS Med Chem Lett, 2024)
The source made the active and inactive calls. No cut-off for these calls is given here.

Legend:
[1] = molecular target: Voltage-gated inwardly rectifying potassium channel KCNH2 (Homo sapiens, UniProt Q12809); assay: Inhibition of hERG; type: toxicity
Toll-like receptor 7 [2] = molecular target: T1, Toll-like receptor 7 (Homo sapiens, UniProt Q9NYK1); assay: Agonist activity at human TLR7 in HEK-Blue hTLR7 cells harboring SEAP reporter transgene incubated for 18 hrs by quanti-blue reagent based assay; type: cell-based
T1 sequence (Q9NYK1 whole entry): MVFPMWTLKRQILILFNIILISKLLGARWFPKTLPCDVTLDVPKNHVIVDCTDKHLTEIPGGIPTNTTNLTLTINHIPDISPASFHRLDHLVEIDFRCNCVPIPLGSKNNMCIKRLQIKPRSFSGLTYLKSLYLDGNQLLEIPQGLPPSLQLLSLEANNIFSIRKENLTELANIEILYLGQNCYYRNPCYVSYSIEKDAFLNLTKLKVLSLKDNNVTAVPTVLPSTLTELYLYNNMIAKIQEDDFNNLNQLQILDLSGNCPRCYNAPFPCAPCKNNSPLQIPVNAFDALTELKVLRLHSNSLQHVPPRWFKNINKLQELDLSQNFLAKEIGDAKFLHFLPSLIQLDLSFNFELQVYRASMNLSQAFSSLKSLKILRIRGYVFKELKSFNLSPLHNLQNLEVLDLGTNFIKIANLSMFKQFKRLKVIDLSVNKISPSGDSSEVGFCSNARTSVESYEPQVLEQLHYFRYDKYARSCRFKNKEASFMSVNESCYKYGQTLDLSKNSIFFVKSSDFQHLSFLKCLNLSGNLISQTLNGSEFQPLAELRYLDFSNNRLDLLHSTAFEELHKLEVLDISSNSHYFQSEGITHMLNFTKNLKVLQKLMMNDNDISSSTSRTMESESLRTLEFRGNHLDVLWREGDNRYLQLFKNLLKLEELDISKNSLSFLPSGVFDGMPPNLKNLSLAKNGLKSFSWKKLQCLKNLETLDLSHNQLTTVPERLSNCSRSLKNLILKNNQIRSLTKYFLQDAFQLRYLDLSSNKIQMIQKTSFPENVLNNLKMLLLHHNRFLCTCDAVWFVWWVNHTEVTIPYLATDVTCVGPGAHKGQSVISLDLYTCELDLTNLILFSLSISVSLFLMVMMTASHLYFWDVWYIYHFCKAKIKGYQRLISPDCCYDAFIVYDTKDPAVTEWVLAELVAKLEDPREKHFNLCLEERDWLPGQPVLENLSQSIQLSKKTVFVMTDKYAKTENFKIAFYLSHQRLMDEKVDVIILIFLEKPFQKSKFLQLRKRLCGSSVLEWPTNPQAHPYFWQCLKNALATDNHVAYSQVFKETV

[3] = Cytotoxicity against PHA-activated T-cells (unknown origin) assessed as inhibition of IL-2 induced cell proliferation measured after 72 hrs by MTS assay; type: toxicity, cell-based
Toll-like receptor 7 [4] = molecular target: T2, Toll-like receptor 7 (Mus musculus, UniProt P58681); assay: (§1) Agonist activity at mouse TLR7
T2 sequence (P58681 whole entry): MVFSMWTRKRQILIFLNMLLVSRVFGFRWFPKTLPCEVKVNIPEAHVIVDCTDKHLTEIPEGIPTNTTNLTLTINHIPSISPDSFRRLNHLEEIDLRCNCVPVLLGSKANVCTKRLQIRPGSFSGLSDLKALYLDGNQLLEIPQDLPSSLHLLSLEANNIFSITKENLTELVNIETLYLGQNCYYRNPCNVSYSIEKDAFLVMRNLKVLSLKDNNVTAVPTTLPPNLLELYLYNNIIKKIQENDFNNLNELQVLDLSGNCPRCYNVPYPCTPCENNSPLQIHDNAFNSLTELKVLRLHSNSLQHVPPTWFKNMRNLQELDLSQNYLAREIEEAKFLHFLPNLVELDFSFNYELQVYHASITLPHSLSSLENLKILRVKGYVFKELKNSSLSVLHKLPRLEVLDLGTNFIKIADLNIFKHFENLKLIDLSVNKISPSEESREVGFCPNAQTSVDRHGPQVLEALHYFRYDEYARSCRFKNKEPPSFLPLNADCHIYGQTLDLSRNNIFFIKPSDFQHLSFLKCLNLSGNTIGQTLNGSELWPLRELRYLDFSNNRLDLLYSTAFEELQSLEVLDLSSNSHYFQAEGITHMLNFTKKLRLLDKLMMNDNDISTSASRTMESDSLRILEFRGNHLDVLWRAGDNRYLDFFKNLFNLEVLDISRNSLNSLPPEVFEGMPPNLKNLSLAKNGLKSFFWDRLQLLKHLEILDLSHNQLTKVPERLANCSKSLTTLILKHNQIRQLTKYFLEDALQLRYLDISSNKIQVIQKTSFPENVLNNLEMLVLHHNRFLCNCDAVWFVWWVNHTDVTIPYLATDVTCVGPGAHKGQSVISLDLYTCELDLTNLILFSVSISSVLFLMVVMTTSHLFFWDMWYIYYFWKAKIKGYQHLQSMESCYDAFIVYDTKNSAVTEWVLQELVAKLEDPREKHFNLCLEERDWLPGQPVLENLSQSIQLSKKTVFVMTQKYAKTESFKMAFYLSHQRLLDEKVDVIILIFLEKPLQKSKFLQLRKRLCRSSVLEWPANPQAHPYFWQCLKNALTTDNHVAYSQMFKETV

Cytochrome P450 2D6 = Cytochrome P450 2D6 (Homo sapiens, UniProt P10635); assay: Inhibition of CYP2D6 (unknown origin); type: ADME
Cytochrome P450 2D6, sequence (P10635 whole entry): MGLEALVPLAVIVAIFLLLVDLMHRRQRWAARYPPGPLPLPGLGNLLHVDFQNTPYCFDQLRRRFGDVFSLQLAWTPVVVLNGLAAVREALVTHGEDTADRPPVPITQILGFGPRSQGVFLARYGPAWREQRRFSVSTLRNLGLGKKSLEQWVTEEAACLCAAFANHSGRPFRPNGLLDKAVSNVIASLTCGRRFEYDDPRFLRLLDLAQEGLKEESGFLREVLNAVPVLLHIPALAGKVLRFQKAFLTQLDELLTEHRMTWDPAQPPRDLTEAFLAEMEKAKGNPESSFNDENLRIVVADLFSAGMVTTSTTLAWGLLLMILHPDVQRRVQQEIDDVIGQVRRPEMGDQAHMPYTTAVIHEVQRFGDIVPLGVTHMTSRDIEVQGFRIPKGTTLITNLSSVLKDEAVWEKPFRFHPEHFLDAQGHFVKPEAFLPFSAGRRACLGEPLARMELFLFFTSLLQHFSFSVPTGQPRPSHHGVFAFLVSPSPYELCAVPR

Cytochrome P450 3A4 [5] = molecular target: T3, Cytochrome P450 3A4 (Homo sapiens, UniProt P08684); assay: Inhibition of CYP3A4 (unknown origin) using BFC as substrate; type: ADME
T3 sequence (P08684 whole entry): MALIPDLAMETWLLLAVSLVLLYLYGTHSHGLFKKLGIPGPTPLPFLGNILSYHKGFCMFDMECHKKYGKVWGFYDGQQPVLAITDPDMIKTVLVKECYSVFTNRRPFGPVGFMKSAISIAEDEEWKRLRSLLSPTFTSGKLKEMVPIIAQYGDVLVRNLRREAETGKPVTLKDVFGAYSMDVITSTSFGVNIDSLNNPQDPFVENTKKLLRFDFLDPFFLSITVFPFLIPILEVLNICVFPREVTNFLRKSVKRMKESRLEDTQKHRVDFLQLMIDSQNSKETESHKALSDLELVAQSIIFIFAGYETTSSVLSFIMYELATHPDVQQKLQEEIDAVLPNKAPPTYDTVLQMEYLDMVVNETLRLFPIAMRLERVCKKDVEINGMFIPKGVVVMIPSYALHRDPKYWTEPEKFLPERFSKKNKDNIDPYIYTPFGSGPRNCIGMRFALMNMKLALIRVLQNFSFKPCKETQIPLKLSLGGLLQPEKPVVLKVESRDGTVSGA

Cytochrome P450 2C8 = molecular target: T4, Cytochrome P450 2C8 (Homo sapiens, UniProt P10632); assay: Inhibition of CYP2C8 (unknown origin); type: ADME
T4 sequence (P10632 whole entry): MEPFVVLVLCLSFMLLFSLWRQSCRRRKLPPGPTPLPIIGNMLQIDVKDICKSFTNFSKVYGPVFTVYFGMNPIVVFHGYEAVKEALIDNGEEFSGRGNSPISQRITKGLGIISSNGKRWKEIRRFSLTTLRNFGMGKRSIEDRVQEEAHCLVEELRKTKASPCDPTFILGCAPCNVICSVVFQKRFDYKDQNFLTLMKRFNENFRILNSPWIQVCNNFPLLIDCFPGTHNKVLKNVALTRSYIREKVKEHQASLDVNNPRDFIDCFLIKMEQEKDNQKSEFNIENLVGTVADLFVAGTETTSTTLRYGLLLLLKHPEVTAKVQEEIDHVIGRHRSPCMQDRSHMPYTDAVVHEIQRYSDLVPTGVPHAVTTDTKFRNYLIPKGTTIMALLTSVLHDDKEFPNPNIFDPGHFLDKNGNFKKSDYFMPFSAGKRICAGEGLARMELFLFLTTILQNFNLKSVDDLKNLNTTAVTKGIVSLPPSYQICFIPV

Cytochrome P450 1A2 = molecular target: T5, Cytochrome P450 1A2 (Homo sapiens, UniProt P05177); assay: Inhibition of CYP1A2 (unknown origin); type: ADME
T5 sequence (P05177 whole entry): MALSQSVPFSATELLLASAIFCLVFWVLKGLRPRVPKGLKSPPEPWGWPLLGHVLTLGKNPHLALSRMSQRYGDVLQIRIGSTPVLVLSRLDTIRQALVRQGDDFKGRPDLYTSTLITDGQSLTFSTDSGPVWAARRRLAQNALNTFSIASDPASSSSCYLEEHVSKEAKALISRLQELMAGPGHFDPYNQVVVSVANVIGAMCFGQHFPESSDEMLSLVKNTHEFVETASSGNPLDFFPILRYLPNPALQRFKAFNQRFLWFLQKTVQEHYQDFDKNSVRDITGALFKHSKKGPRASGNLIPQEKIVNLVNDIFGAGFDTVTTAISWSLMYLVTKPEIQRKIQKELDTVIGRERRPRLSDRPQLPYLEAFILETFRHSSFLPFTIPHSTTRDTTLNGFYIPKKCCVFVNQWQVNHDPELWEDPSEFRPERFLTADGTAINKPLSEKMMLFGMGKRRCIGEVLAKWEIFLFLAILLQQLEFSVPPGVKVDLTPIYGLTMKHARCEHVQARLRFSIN

[6] = Metabolic stability in human liver microsomes assessed as compound remaining at 0.5 uM incubated for 10 mins in presence of NADPH by UV absorbance based assay; type: ADME, Microsome; conditions: read-out: Stability
Cytochrome P450 2C9 = Cytochrome P450 2C9 (Homo sapiens, UniProt P11712); assay: Inhibition of CYP2C9 (unknown origin); type: ADME
Cytochrome P450 2C9, sequence (P11712 whole entry): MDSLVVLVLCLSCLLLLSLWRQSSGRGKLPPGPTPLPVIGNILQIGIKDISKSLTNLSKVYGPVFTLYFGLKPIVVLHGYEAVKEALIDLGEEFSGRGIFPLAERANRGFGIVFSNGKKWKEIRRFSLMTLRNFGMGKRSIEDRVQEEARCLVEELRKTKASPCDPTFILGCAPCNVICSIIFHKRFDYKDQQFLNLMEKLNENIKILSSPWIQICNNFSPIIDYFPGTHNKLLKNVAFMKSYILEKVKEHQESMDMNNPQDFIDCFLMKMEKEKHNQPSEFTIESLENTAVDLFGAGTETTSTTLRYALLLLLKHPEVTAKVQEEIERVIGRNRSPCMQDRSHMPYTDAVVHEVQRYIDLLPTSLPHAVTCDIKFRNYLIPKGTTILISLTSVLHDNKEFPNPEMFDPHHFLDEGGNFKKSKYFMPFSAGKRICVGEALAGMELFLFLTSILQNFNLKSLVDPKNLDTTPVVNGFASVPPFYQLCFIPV

Cytochrome P450 2C19 = Cytochrome P450 2C19 (Homo sapiens, UniProt P33261); assay: Inhibition of CYP2C19 (unknown origin); type: ADME
Cytochrome P450 2C19, sequence (P33261 whole entry): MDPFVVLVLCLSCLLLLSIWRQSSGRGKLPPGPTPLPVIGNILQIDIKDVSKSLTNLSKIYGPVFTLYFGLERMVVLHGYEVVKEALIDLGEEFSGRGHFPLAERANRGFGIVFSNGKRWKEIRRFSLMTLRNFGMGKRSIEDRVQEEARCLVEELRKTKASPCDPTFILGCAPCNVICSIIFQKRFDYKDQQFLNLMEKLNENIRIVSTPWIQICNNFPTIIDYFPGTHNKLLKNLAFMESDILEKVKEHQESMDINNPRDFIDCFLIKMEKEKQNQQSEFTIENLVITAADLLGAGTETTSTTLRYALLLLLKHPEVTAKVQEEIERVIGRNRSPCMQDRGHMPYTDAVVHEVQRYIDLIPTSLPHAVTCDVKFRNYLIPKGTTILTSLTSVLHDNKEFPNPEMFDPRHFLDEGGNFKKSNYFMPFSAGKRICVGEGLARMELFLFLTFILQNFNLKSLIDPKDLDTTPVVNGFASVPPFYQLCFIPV

[7] = Metabolic stability in mouse liver microsomes assessed as compound remaining at 0.5 uM incubated for 10 mins in presence of NADPH by UV absorbance based assay; type: ADME, Microsome; conditions: read-out: Stability
Cytochrome P450 3A4 [8] = molecular target: T3, Cytochrome P450 3A4; assay: Inhibition of CYP3A4 (unknown origin) using BFC as substrate preincubated with compound followed by substrate addition at 30 mins; type: ADME
Cytochrome P450 3A4 [9] = molecular target: T3, Cytochrome P450 3A4; assay: Inhibition of CYP3A4 (unknown origin) using BFC as substrate preincubated with compound followed by substrate addition at 5 mins; type: ADME
[10] = molecular target: T6, Toll-like receptor 7 (Mus musculus) (UniProt P58681); assay: as §1
T6 sequence (whole entry): T2 sequence (P58681 whole entry)

Voltage-gated inwardly rectifying potassium channel KCNH2, sequence (Q12809 whole entry): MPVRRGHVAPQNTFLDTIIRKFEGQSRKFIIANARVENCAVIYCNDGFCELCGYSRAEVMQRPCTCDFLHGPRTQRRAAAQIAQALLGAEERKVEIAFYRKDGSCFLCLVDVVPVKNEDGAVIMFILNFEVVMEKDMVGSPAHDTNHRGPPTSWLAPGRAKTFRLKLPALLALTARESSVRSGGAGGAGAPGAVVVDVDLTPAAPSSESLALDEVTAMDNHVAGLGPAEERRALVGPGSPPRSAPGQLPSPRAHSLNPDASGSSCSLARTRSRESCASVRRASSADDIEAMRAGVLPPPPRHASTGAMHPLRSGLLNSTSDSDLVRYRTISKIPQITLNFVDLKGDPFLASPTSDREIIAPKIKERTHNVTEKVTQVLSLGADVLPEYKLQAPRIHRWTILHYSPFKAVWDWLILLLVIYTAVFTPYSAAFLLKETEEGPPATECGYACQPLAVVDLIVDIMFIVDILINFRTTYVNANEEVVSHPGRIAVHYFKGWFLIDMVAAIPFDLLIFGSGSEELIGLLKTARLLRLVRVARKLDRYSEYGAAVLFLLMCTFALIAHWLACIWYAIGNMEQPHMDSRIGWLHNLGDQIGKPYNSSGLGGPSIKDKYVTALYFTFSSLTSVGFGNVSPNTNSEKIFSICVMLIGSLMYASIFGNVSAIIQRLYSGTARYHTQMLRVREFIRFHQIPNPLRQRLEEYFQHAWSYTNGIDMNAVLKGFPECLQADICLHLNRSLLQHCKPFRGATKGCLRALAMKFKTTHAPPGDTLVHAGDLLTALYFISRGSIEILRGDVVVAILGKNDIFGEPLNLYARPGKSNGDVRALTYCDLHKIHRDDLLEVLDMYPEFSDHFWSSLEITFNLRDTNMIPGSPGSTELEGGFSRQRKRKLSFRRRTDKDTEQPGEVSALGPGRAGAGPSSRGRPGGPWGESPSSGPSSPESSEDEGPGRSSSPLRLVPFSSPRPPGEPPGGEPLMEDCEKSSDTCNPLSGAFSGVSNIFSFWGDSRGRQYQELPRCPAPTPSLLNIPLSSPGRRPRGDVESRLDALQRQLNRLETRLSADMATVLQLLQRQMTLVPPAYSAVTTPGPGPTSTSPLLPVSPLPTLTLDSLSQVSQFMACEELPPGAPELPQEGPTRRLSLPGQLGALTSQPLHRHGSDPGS

Structure (SMILES) | EC50 (Toll-like receptor 7 [2]) | EC50 (Toll-like receptor 7 [4]) | IC50 (Cytochrome P450 2D6) | IC50 (Cytochrome P450 3A4 [5]) | IC50 (Cytochrome P450 2C8) | IC50 (Cytochrome P450 1A2) | remaining at 10 min, 0.5 µM [6] | IC50 (Cytochrome P450 2C9) | IC50 (Cytochrome P450 2C19) | remaining at 10 min, 0.5 µM [7] | IC50 (Cytochrome P450 3A4 [8]) | IC50 (Cytochrome P450 3A4 [9]) | Activity [10] | inhibition (INH) ([1]; human) | IC50 at 72 h [3] | IC50 [1]
CCCCNc1nc(N)nc2cnn(Cc3ccc(N4CCNCC4)cc3OC)c12 | 0.78 µM | 1.95 µM | > 20 µM | > 20 µM | > 20 µM | > 20 µM | 100% | > 20 µM | > 20 µM | 5% | > 20 µM | > 20 µM | – | Not Active | 20 µM | –
CCC[C@@H](CCO)Nc1nc(N)nc2cnn(Cc3ncc(C4CCN(C5CCN(C)CC5)CC4)cc3OC)c12 | – | – | > 20 µM | > 20 µM | > 20 µM | > 20 µM | 99% | > 20 µM | > 20 µM | 85% | > 20 µM | > 20 µM | inactive | – | > 25 µM | > 50 µM
CCCCNc1nc(N)nc2c(CC)nn(Cc3ncc(C4CCNCC4)cc3OC)c12 | 0.572 µM | > 5 µM | > 20 µM | > 20 µM | > 20 µM | > 20 µM | 74% | > 20 µM | > 20 µM | 47% | > 20 µM | > 20 µM | – | – | > 25 µM | > 50 µM
CCCCNc1nc(N)nc2cnn(Cc3ncc(C4CCNCC4)cc3OC)c12 | 0.084 µM | 0.984 µM | > 20 µM | > 20 µM | > 20 µM | > 20 µM | 100% | > 20 µM | > 20 µM | 97% | > 20 µM | > 20 µM | – | – | > 25 µM | 19 µM

Further lines, with some results ahead:

EC50 (Toll-like receptor 7 [2]) | EC50 (Toll-like receptor 7 [4]) | IC50 (Cytochrome P450 2D6) | IC50 (Cytochrome P450 3A4 [5]) | IC50 (Cytochrome P450 2C8) | IC50 (Cytochrome P450 1A2) | remaining at 10 min, 0.5 µM [6] | IC50 (Cytochrome P450 2C9) | IC50 (Cytochrome P450 2C19) | remaining at 10 min, 0.5 µM [7] | IC50 (Cytochrome P450 3A4 [8]) | IC50 (Cytochrome P450 3A4 [9]) | Activity [10] | Structure (SMILES) | inhibition (INH) ([1]; human) | IC50 at 72 h [3] | IC50 [1]
0.021 µM | 0.048 µM | > 20 µM | > 20 µM | > 20 µM | > 20 µM | 88% | > 20 µM | > 20 µM | 87% | > 20 µM | > 20 µM | – | CCC[C@@H](CCO)Nc1nc(N)nc2cnn(Cc3ncc(C4CCC5(CC4)CN(C(C)C)C5)cc3OC)c12 | – | > 25 µM | 13 µM
0.37 µM | 1.6 µM | > 17 µM | > 17 µM | > 17 µM | > 17 µM | 87% | > 17 µM | > 17 µM | 100% | > 17 µM | > 17 µM | – | CCC[C@@H](CCO)Nc1nc(N)nc2cnn(Cc3ncc(C4CC5(CNC5)C4)cc3OC)c12 | – | > 25 µM | > 50 µM
0.049 µM | 0.124 µM | > 20 µM | > 20 µM | > 20 µM | > 20 µM | 93% | > 20 µM | > 20 µM | 100% | > 20 µM | > 20 µM | – | CCC[C@@H](CCO)Nc1nc(N)nc2cnn(Cc3ncc(C4CCN(CCO)CC4)cc3OC)c12 | – | > 25 µM | > 50 µM
0.133 µM | 0.177 µM | > 14 µM | > 14 µM | > 14 µM | > 14 µM | 100% | > 14 µM | > 14 µM | 44% | > 14 µM | > 14 µM | – | CCC[C@@H](CCO)Nc1nc(N)nc2cnn(Cc3ncc(C4CCC5(CC4)CNC5)cc3OC)c12 | – | > 25 µM | 14 µM
0.37 µM | 0.148 µM | > 20 µM | > 20 µM | > 20 µM | > 20 µM | 77% | > 20 µM | > 20 µM | 66% | > 20 µM | > 20 µM | – | CCC[C@@H](CCO)Nc1nc(N)nc2cnn(Cc3ncc(C4CC5(C4)CN(C4CCOCC4)C5)cc3OC)c12 | – | > 25 µM | > 50 µM
